# Assay results taken from patent US8129371B2, “Thienopyrimidine and pyrazolopyrimidine compounds and their use as mTOR kinase and PI3 kinase inhibitors” (Wyeth LLC, priority 2007, dated 2012).
# Like-named read-outs stand apart in the source and are kept apart here.
# Experiments:
# PI3K [1] = target: T1, PI3K (Homo sapiens, UniProt P42336); experiment: Fluorescence polarization assay for PI3K; type: biochemical; conditions: read-out: PI3 Kinase α IC50
# T1 construct: PI3 Kinase α IC50; other: PI3 Kinase α; other: PI3 Kinase α isoform, fluorescence polarization
# Method in brief: (§1)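 Fluorescence-polarization competition readout: after 30–60 min of PIP2/ATP turnover in 1% DMSO, a stop mix with GST-GRP (70 nM) and red probe (10 nM) was added.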
# PI3K [2] = target: T2, PI3K (Homo sapiens, UniProt P42338); experiment: Fluorescence polarization assay for PI3K; type: biochemical
# T2 construct: PI3 Kinase β IC50; other: PI3 Kinase β; other: PI3 Kinase β isoform, fluorescence polarization
# Method in brief: as §1
# PI3K [3] = target: T3, PI3K (Homo sapiens, UniProt P48736); experiment: Fluorescence polarization assay for PI3K; type: biochemical; conditions: read-out: PI3 Kinase γ IC50
# T3 construct: PI3 Kinase γ IC50; other: PI3 Kinase γ; other: PI3 Kinase γ isoform, fluorescence polarization
# Method in brief: as §1
# PI3K [4] = target: T4, PI3K (Homo sapiens, UniProt O00329); experiment: Fluorescence polarization assay for PI3K; type: biochemical
# T4 construct: PI3 Kinase δ IC50; other: PI3 Kinase δ; other: PI3 Kinase δ isoform, fluorescence polarization
# T4 sequence (O00329 1-1044): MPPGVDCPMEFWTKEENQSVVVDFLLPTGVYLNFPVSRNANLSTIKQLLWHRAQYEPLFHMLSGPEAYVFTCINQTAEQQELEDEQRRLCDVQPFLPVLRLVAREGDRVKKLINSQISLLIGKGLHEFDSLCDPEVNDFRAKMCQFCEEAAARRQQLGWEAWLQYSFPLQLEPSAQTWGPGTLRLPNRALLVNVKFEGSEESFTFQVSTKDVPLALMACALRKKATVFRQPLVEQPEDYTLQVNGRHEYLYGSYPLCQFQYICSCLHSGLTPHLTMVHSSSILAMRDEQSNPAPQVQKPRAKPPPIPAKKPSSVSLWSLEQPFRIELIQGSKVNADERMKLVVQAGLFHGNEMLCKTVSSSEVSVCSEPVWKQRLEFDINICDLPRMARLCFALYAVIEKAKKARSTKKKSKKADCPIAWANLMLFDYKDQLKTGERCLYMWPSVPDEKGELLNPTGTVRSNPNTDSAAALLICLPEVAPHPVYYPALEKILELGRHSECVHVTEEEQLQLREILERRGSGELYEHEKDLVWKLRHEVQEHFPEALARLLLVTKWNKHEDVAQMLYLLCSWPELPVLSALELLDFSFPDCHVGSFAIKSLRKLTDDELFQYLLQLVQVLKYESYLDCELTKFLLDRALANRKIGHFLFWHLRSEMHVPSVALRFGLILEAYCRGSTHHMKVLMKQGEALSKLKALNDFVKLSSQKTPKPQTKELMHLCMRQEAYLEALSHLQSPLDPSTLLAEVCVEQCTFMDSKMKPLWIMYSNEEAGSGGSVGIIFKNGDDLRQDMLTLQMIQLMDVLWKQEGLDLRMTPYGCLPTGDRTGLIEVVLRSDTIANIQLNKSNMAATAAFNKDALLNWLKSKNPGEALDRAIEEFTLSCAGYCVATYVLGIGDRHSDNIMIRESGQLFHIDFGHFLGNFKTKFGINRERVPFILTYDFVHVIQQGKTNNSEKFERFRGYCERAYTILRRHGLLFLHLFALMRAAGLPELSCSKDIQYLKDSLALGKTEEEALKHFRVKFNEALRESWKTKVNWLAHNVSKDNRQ
# Method in brief: as §1
# breast line MDA468 = experiment: In vitro cell culture growth assay (MTS), MDA468; type: cell-based; conditions: Homo sapiens, 72 h, MDA468 cells, three days after drug treatment
# Method in brief: (§2)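 Growth is reported as percent of vehicle-treated control grown in the same plate, with viability determined by metabolic conversion of MTS dye and absorbance read at 490 nm. Compounds were applied one day after plating and left for three days.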
# Human mTOR (FLAG-TOR) = target: T5, Human mTOR (FLAG-TOR) (Homo sapiens, UniProt P42345); experiment: Human mTOR kinase assay with purified enzyme, DELFIA format; type: biochemical
# T5 construct: FLAG
# Method in brief: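 DELFIA readout: Eu-anti-P(T389)-S6K antibody (40 ng/mL, 1 h) on captured His6-S6K from the stopped reaction. Kinase step used purified FLAG-tagged human mTOR with test compound in HEPES (pH 7.4)/MnCl2/DTT buffer, 2 h at room temperature (linear 1–6 h), terminated by EDTA/EGTA.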
# prostate line LNCap = experiment: In vitro cell culture growth assay (MTS), LNCap; type: cell-based; conditions: Homo sapiens, LNCaP, 72 h, LNCap cells, three days after drug treatment
# Method in brief: as §2
# [5] = tested on: acute lymphoblastic leukemia xenograft; conditions: NOS/SCID xenograft mouse model; Teachey et al, Blood 2006; cited from earlier work
# [6] = PI3 Kinase α isoform, fluorescence polarization
# [7] = PI3 Kinase β isoform, fluorescence polarization
# [8] = PI3 Kinase γ isoform, fluorescence polarization
# [9] = PI3 Kinase δ isoform, fluorescence polarization
# [10] = purified human mTOR enzyme, DELFIA format
# T2 sequence (P42338 whole entry, canonical isoform): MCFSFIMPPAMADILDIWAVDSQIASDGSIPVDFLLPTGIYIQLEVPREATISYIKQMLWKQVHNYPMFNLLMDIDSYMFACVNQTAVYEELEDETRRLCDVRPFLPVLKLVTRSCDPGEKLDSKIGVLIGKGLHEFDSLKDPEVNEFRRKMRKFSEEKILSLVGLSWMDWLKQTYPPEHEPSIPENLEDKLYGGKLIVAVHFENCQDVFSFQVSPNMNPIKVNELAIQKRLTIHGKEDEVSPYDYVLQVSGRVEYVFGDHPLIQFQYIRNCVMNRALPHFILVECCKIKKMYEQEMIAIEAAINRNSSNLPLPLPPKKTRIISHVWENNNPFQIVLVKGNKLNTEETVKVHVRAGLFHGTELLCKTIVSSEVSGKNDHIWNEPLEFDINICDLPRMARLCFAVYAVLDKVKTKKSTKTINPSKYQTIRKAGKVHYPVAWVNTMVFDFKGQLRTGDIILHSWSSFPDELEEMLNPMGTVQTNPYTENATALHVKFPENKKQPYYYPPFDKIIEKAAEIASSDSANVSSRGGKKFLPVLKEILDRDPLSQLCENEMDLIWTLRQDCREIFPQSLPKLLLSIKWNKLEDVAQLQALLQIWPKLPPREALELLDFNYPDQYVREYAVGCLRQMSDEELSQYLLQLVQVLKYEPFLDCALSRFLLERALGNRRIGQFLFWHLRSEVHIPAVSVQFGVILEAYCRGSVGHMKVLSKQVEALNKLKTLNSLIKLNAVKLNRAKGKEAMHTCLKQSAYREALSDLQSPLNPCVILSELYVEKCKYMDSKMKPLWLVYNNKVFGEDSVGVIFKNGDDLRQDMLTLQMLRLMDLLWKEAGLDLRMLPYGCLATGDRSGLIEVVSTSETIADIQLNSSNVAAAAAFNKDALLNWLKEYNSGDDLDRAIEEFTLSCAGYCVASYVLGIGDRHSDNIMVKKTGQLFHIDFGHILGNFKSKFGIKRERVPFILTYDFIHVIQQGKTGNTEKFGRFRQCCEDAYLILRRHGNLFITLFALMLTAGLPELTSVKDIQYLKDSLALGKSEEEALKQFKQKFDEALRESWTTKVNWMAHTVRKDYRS
# T3 sequence (P48736 whole entry, canonical isoform): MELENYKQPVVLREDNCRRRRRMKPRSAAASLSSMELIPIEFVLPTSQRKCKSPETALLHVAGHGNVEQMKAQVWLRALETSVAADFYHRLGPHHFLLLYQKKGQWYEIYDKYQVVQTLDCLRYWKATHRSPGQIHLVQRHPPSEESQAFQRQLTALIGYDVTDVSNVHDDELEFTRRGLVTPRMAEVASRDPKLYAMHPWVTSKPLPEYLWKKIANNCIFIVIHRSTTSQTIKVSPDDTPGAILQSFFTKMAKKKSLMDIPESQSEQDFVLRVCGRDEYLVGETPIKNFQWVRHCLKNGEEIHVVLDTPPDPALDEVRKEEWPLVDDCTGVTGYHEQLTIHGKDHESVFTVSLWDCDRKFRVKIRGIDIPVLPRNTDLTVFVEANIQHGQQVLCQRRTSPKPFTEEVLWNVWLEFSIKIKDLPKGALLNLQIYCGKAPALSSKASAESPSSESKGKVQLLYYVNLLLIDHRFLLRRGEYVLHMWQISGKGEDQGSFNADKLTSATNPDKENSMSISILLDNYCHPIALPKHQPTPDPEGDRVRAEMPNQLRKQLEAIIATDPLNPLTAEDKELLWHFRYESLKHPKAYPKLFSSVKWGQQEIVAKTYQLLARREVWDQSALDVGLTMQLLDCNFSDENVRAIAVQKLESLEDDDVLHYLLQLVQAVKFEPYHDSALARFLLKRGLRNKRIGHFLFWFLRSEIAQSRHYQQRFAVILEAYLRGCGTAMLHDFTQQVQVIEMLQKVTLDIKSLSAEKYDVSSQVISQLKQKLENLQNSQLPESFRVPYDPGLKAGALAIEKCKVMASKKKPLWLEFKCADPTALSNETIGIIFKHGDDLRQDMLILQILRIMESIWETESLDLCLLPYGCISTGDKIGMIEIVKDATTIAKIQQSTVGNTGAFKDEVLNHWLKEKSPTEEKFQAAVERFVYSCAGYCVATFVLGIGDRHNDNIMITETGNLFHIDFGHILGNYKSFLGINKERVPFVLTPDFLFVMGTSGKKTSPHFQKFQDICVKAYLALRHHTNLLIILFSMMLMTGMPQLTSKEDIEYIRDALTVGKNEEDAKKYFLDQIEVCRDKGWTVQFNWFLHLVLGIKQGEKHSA
# T1 sequence (P42336 whole entry, canonical isoform): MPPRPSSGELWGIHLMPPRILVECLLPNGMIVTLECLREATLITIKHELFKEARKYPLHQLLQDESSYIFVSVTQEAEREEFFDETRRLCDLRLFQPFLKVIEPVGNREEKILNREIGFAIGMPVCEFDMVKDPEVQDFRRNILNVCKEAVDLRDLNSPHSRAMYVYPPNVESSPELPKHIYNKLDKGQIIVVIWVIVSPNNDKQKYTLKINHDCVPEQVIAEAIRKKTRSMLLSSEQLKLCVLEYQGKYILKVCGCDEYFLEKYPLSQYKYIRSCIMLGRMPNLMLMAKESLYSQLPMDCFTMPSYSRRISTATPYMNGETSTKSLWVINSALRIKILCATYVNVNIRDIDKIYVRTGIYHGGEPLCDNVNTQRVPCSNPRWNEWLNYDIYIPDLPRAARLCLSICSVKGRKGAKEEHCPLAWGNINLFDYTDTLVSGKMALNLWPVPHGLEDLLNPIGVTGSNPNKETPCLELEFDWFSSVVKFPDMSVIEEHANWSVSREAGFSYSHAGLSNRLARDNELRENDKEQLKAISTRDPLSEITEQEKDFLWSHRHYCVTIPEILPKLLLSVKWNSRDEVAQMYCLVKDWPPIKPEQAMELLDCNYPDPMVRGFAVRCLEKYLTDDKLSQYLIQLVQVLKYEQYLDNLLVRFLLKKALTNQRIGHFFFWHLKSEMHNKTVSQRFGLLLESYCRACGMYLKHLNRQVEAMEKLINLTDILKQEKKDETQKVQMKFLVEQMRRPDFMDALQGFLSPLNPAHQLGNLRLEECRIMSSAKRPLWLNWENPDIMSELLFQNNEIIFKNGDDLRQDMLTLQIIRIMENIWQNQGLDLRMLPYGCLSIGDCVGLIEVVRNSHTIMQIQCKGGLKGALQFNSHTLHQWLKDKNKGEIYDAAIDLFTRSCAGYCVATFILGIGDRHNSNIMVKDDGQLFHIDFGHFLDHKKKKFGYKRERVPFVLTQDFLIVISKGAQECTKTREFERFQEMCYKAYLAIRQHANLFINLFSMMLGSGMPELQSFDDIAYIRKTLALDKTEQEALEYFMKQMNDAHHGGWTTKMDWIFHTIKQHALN
Compound,IC50 (PI3K [1]; [6]) [nM],IC50 (PI3K [2]; [7]) [nM],IC50 (PI3K [3]; [8]) [nM],IC50 (PI3K [4]; [9]) [nM],IC50 (breast line MDA468) [nM],IC50 (Human mTOR (FLAG-TOR); [10]) [nM],IC50 (prostate line LNCap) [nM],IC50 (PI3K [1]; PI3 Kinase α) [nM],IC50 (PI3K [2]; PI3 Kinase β) [nM],IC50 (PI3K [3]; PI3 Kinase γ) [nM],IC50 (PI3K [4]; PI3 Kinase δ) [nM],IC50 (Human mTOR (FLAG-TOR)) [nM],activity in xenograft mouse model of acute lymphoblastic leukemia [5]
"COC1CCC(n2ncc3c(N4CC5CCC(C4)O5)nc(-c4ccc(NC(=O)Nc5ccc(N6CCN(C)CC6)cc5)cc4)nc32)CC1 (stereo not shown) [Example 304, 1-{4-[1-(4-methoxycyclohexyl)-4-(8-oxa-3-azabicyclo[3.2.1]oct-3-yl)-1H-pyrazolo[3,4-d]pyrimidin-6-yl]phenyl}-3-[4-(4-methylpiperazin-1-yl)phenyl]urea]",239,2840,720,200,1,0.265,< 1,–,–,–,–,–,–
"O=C(Nc1ccc(-c2nc(N3CC4CCC(C3)O4)c3cnn(CC(F)(F)F)c3n2)cc1)OCCO [Example 110, 2-hydroxyethyl {4-[4-(8-oxa-3-azabicyclo[3.2.1]oct-3-yl)-1-(2,2,2-trifluoroethyl)-1H-pyrazolo[3,4-d]pyrimidin-6-yl]phenyl}carbamate]",–,–,–,–,42,–,2.3,1050,> 10000,12000,12000,0.6,–
"CNC(=O)Nc1ccc(-c2nc(N3CC4CCC(C3)O4)c3cnn(C4CCC5(CC4)OCCO5)c3n2)cc1 [Example 105, 1-(4-(4-(8-oxa-3-azabicyclo[3.2.1]octan-3-yl)-1-(1,4-dioxaspiro[4.5]decan-8-yl)-1H-pyrazolo[3,4-d]pyrimidin-6-yl)phenyl)-3-methylurea]",–,–,–,–,26,–,–,1180,> 10000,> 10000,2380,0.21,–
CO[C@H]1C[C@@H]2CC[C@@H](C)[C@@](O)(O2)C(=O)C(=O)N2CCCC[C@H]2C(=O)O[C@H]([C@H](C)C[C@@H]2CC[C@@H](OC(=O)C(C)(CO)CO)[C@H](OC)C2)CC(=O)[C@H](C)/C=C(\C)[C@@H](O)[C@@H](OC)C(=O)[C@H](C)C[C@H](C)/C=C/C=C/C=C/1C [Torisel],–,–,–,–,–,–,–,–,–,–,–,–,active
"CN1CCN(c2ccc(NC(=O)Nc3ccc(-c4nc(N5CC6CCC(C5)O6)c5cnn(CC(F)(F)F)c5n4)cc3)cc2)CC1 [Example 261, 1-[4-(4-methylpiperazin-1-yl)phenyl]-3-{4-[4-(8-oxa-3-azabicyclo[3.2.1]oct-3-yl)-1-(2,2,2-trifluoroethyl)-1H-pyrazolo[3,4-d]pyrimidin-6-yl]phenyl}urea]",–,–,–,–,2,–,1,142,–,–,945,0.776,–
"COC1CCC(n2ncc3c(N4CC5CCC(C4)O5)nc(-c4ccc(NC(=O)NC5CC5)cc4)nc32)CC1 (stereo not shown) [Example 302, 1-cyclopropyl-3-{4-[1-(4-methoxycyclohexyl)-4-(8-oxa-3-azabicyclo[3.2.1]oct-3-yl)-1H-pyrazolo[3,4-d]pyrimidin-6-yl]phenyl}urea]",3920,> 10000,8020,1740,7,0.3,2,–,–,–,–,–,–
"O=C(Nc1ccc(-c2nc(N3C[C@@H]4C[C@H]3CO4)c3cnn(CC(F)(F)F)c3n2)cc1)NC1CC1 [Example 296, 1-cyclopropyl-3-(4-{4-[(1S,4S)-2-oxa-5-azabicyclo[2.2.1]hept-5-yl]-1-(2,2,2-trifluoroethyl)-1H-pyrazolo[3,4-d]pyrimidin-6-yl}phenyl)urea]",4050,> 10000,1070,6820,138,1.87,67,–,–,–,–,–,–
